≈ marks a conversion by molar mass, not a printed value. Like-named read-outs stand apart in the source and are kept apart here. Values belong to the compound of their own block, whether it stands above or below them.
Tests used:
HT-22 and SH-SY5Y cells = details: concentration where viability was restored to about 75%, ref [103]; read-out: Effective concentration 50 (EC50), neuroprotection; cited from earlier work
[1] = system: Methicillin-Resistant S. aureus (MRSA); assay: MIC and MBC evaluation (broth microdilution, agar plate assay); format: cell-based, Staphylococcus aureus
Procedure: (§1) The MIC and MBC assessment on the pathogenic bacteria and the candidate probiotic lactic acid bacteria was carried out by the broth microdilution assay (BMD) and the agar plate assay, respectively, as described in [4]. The metabolic (dehydrogenase) activity of the lactic acid bacteria was assessed as described in [4].
(§2) P. aeruginosa PAO1 ATCC 15692 was purchased from the American Type Cell Culture Collection (ATCC, Manassas, VA, USA). S. mutans DSM 20523 was bought from the German Collection of Microorganisms and Cell Cultures (DSMZ GmbH, Braunschweig, Germany). All other bacteria and strains were purchased as described in [4].

Enterococcus faecalis [2] = assay: as above; format: cell-based
Procedure: as §1, §2

Staphylococcus aureus [3] = assay: as above; format: cell-based; details: for MBC: read-out: Minimal bactericidal concentration (MBC), Staphylococcus aureus; for MBC/MIC ratio, S. aureus: bactericidal if ≤ 4, bacteriostatic if > 4
Procedure: as §1, §2

[4] = system: Human embryonic kidney-293 (HEK-293); assay: MTT assay for cytotoxicity; format: cell-based
Procedure: (§3) The MTT assay was performed according to Annex C, ISO 10993-5 [56] as in [116]. The panel of non-tumorigenic cell lines consisted of one murine (CCL-1 fibroblasts, which are recommended as a standard for cytotoxicity evaluation in Annex C of ISO 10993-5 [56]) and four human cell lines—HaCaT (immortalized epidermal keratinocytes), HGF (gingival fibroblasts), HEK-293 (embryonic cells from kidney epithelium), and HEPG2 (hepatoblastoma). Although technically a cancer cell line, HEPG2 is non-tumorigenic and retains many hepatocyte-related features in its proteome and a high degree of morphological and functional differentiation, also being a stage one hepatoblastoma.
(§4) CCL-1 was purchased from ATCC and HaCaT and HGF were bought from CLS Cell Lines Service (GmbH, Eppelheim, Germany). HEK-293 and HEPG2 were obtained from DSMZ. The cell culture medium for HaCaT and HEPG2 was Dulbecco’s Modified Eagle Medium (DMEM) with 4.5 g/L glucose (DMEM-HA). For HGF it was DMEM/F-12 (DMEM-12-A, a 1:1 mixture of DMEM and Ham’s F-12 medium). The cell medium for CCL-1 and HEK-293 was Eagle’s Minimum Essential Medium (MEM) (MEM-A). Ten percent heat-inactivated fetal bovine serum (FBS) was added to all media but to the one for the CCL-1 cells, to which 10% heat-inactivated horse serum was added. All media were supplemented with 2 mM L-glutamine and Penicillin/Streptomycin (Pen/Strep, 100×). The cell culture media, sera, and additives were from Capricorn Scientific (Düsseldorf, Germany).
(§5) GraphPad Prism software version 9 (GraphPad Software Inc., San Diego, CA, USA) was used to calculate the IC50 values from the MTT assays as in [116], as well as the MTC values, and the ELISA standard curves. The MTC values are, according to ISO 10993-5, the maximum concentration at which at least 70% of the cells are viable (nonlin fit, range).

[5] = system: Human gingival fibroblasts (HGF); assay: MTT assay for cytotoxicity; format: cell-based
Procedure: as §3, §4, §5

HEPG2 = assay: MTT assay for cytotoxicity; format: cell-based, human
Procedure: as §3, §4, §5

HaCaT = assay: MTT assay for cytotoxicity; format: cell-based, human
Procedure: as §3, §4, §5

CCL-1 cells = assay: Colony-forming unit assay; format: cell-based, murine; details: for Percentage of colonies, CCL-1: untreated control = 100%
Procedure: (§6) The CFU was also performed according to ISO 10993-5 [56]. Briefly, the cell lines were seeded at a concentration like for the MTT assay in 6-well plates, treated with the chosen agents and left for a 48 h exposure. Then, the cells were trypsinized, and pre-calculated 20 to 100 µL from the cell suspension was added to a sterile Roswell Park Memorial Institute (RPMI) medium (RPMI-A, Capricorn Scientific), containing 20% of the respective cell culture medium for each cell line but with a final concentration of FBS and L-glutamine of 40–42% and 0.8–1.2 mM, respectively, 0.2% NaHCO3 (S6297, Merck Sigma-Aldrich, Saint Louis, MI, USA), and 0.8% methylcellulose (M0512, Merck Sigma-Aldrich) for viscosity. The viscous cell solution was vortexed for 10 s and dispensed in an equal number of cells per well in 6-well plates (1.2 mL per well) in triplicate for each concentration of treatment. HaCaT and HEK-293 were seeded at a concentration of 2500 cells per mL, CCL-1 and HEPG2—2000 cells per mL, and HGF—1000 cells per mL. The plates were incubated for 6 to 10 days, and when the colonies reached 20 to 50 cells per colony, 100 µL MTT salt solution was added to each well. After half an hour, the stained colonies were counted manually using a microscope.

CCL-1 = assay: MTT assay for cytotoxicity; format: cell-based, murine
Procedure: as §3, §4, §5

Enterococcus faecalis [6] = details: ref [4],[29]; cited from earlier work
[7] = system: Methicillin-Resistant S. aureus (MRSA); details: ref [4],[29]; cited from earlier work
Staphylococcus aureus [8] = details: ref [4],[29]; cited from earlier work
HEK-293 cells = assay: Colony-forming unit assay; format: cell-based, human; details: for Percentage of colonies, HEK-293: untreated control = 100%
Procedure: as §6

HaCaT cells = assay: Colony-forming unit assay; format: cell-based, human; details: for Colonies per well for HaCaT cells: mean of three wells; for Percentage of colonies, HaCaT: untreated control = 100%
Procedure: as §6

Streptococcus pyogenes = details: ref [4],[29]; cited from earlier work
[9] = system: panel of cancer cell lines; design: method as in PMID 39454890; details: ref [48]; read-out: IC50 against a panel of cancer cell lines; cited from earlier work
[10] = system: Pseudomonas aeruginosa PAO1; assay: MIC and MBC evaluation (broth microdilution, agar plate assay); format: cell-based; details: Pseudomonas aeruginosa, PAO1
Procedure: as §1, §2

breast cancer cell line = system: breast cancer cell line; design: method as in PMID 26865836; details: 24 h, ref [93]; cited from earlier work
[11] = bactericidal if ≤ 4, bacteriostatic if > 4

Compound: COc1ccc(C(=O)CCc2c(OC)cc(O)cc2OC)cc1 [4-hydroxy-2,6,4′-trimethoxydihydrochalcone]
EC50 (HT-22 and SH-SY5Y cells): 1.48 µM

Compound: CNC(C)C1CCC(N)C(OC2C(N)CC(N)C(OC3OCC(C)(O)C(NC)C3O)C2O)O1 (stereo not drawn) [Gentamicin, reference compound]
MBC ([1]; Staphylococcus aureus, MRSA): 2.5 µg/mL (≈ 5.23 µM) | MBC/MIC ratio, MRSA [1, 11]: 20 | MBC (Enterococcus faecalis [2]; Enterococcus faecalis): 72 µg/mL (≈ 151 µM) | MBC/MIC ratio, E. faecalis (Enterococcus faecalis [2]; [11]): 9 | MBC (Staphylococcus aureus [3]; Staphylococcus aureus): 1.9 µg/mL | MBC/MIC ratio, S. aureus (Staphylococcus aureus [3]): 8 ^5

Compound: CC(C)=CCC[C@]1(C)[C@@H](CC=C(C)C)C[C@]2(C)C(=O)C(CC=C(C)C)=C(O)[C@@]1(C(=O)C(C)C)C2=O [Hyperpolyphyllirin/hyperibine J]
Maximum tolerated concentration (MTC), HEK-293 [4]: 0.46 µg/mL | IC50, HEK-293 ([4]; MTT assay): 0.79 µg/mL (≈ 1.64 µM) | IC50 ([4]; converted to µM): 1.64 µM | Maximum tolerated concentration (MTC), HGF [5]: 10.47 µg/mL | IC50, HGF ([5]; MTT assay): 12.41 µg/mL (≈ 25.7 µM) | IC50 ([5]; converted to µM): 25.7 µM | Maximum tolerated concentration (MTC), HEPG2 (HEPG2): 5.13 µg/mL | IC50, HEPG2 (HEPG2; MTT assay): 14.33 µg/mL (≈ 29.7 µM) | IC50 (HEPG2; converted to µM): 29.7 µM | Maximum tolerated concentration (MTC), HaCaT (HaCaT): 0.75 µg/mL | IC50, HaCaT (HaCaT; MTT assay): 2.29 µg/mL (≈ 4.74 µM) | IC50 (HaCaT; converted to µM): 4.74 µM | Colonies per well for CCL-1 cells (CCL-1 cells; 1/2 × IC50, 48 h exposure): 162 | Percentage of colonies, CCL-1 (CCL-1 cells; 1/2 × IC50): 111% | Colonies per well for CCL-1 cells (CCL-1 cells; 2 × IC50, 48 h exposure): 113 | Percentage of colonies, CCL-1 (CCL-1 cells; 2 × IC50): 77% | Colonies per well for CCL-1 cells (CCL-1 cells; IC50, 48 h exposure): 116 | Percentage of colonies, CCL-1 (CCL-1 cells; IC50): 79% | Maximum tolerated concentration (MTC), CCL-1 (CCL-1): 4.56 µg/mL | IC50, CCL-1 (CCL-1; MTT assay): 7.07 µg/mL (≈ 14.6 µM) | IC50 (CCL-1; converted to µM): 14.7 µM | MIC on bacteria, E. faecalis (Enterococcus faecalis [6]): 8 µg/mL (≈ 16.6 µM) | MIC on bacteria, MRSA [7]: 8 µg/mL (≈ 16.6 µM) | MIC on bacteria, S. aureus (Staphylococcus aureus [8]): 2 µg/mL (≈ 4.14 µM) | Colonies per well for HEK-293 cells (HEK-293 cells; 1/2 × IC50, 48 h exposure): 110 | Percentage of colonies, HEK-293 (HEK-293 cells; 1/2 × IC50): 89% | Colonies per well for HEK-293 cells (HEK-293 cells; 2 × IC50, 48 h exposure): 67 | Percentage of colonies, HEK-293 (HEK-293 cells; 2 × IC50): 54% | Colonies per well for HEK-293 cells (HEK-293 cells; IC50, 48 h exposure): 91 | Percentage of colonies, HEK-293 (HEK-293 cells; IC50): 73% | Colonies per well for HaCaT cells (HaCaT cells; 1/2 × IC50, 48 h exposure): 143 | Percentage of colonies, HaCaT (HaCaT cells; 1/2 × IC50): 259% | Colonies per well for HaCaT cells (HaCaT cells; 2 × IC50, 48 h exposure): 58 | Percentage of colonies, HaCaT (HaCaT cells; 2 × IC50): 105% | Colonies per well for HaCaT cells (HaCaT cells; IC50, 48 h exposure): 133 | Percentage of colonies, HaCaT (HaCaT cells; IC50): 241% | Minimal bactericidal concentration (MBC), Staphylococcus aureus (Staphylococcus aureus [3]): 94 µg/mL (≈ 195 µM) | MBC/MIC ratio, S. aureus (Staphylococcus aureus [3]): 47 | MBC (Staphylococcus aureus [3]): 194 µM | MIC on bacteria, S. pyogenes (Streptococcus pyogenes): 31 µg/mL (≈ 64.2 µM)

Compound: O=c1c(-c2c(O)cc(O)c3c(=O)cc(-c4ccc(O)cc4)oc23)c(-c2ccc(O)cc2)oc2cc(O)cc(O)c12 [I3-II8-biapigenin]
IC50 [9]: 107 to 198 µM

MIC [10]: 1.6 µg/mL (≈ 4.17 µM)
Compound: C[C@@H](O)[C@H]1C(=O)N2C(C(=O)O)=C(S[C@@H]3CN[C@H](C(=O)N(C)C)C3)[C@H](C)[C@H]12 [Meropenem, reference compound]
MBC [10]: 6.4 µg/mL (≈ 16.7 µM)

Compound: N.N.[Cl][Pt][Cl] [cisplatin]
IC50 for a breast cancer cell line (breast cancer cell line): 20 µg/mL

Reference: paper PMC12566971, “Polyprenylated Acylphloroglucinols from Hypericum rochelii and Hypericum olympicum—Cytotoxic Effects on Non-Tumorigenic Cell Lines and Antibacterial Potential” (Pharmaceuticals, 2025)
